Key:
[1] = target: T1, Cytoplasmic tyrosine-protein kinase BMX (Homo sapiens) (UniProt P51813); assay: Inhibition of human full length recombinant Bmx at 5 nM by radiometric scintillation counting analysis relative to control
T1 sequence (whole entry): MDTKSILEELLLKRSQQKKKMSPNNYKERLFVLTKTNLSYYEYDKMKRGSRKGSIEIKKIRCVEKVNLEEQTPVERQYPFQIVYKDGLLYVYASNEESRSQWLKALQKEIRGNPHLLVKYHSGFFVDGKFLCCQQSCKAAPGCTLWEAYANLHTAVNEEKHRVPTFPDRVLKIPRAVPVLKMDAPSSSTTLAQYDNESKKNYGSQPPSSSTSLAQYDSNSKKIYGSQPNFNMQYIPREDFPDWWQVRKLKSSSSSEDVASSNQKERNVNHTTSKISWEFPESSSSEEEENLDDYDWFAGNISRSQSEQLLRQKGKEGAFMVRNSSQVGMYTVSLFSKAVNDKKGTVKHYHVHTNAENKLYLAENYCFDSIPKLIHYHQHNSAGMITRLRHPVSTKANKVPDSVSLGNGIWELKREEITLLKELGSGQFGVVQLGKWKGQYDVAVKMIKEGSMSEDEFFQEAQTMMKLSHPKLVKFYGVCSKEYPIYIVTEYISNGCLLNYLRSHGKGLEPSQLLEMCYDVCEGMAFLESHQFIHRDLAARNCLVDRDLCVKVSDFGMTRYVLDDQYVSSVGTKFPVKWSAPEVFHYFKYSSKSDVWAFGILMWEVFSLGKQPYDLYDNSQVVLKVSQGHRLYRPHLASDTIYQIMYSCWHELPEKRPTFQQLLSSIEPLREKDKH

[2] = target: Tyrosine-protein kinase CSK (Homo sapiens, UniProt P41240); assay: Inhibition of human full length recombinant CSK at 5 nM by radiometric scintillation counting analysis relative to control
[3] = target: Tyrosine-protein kinase Fgr (Homo sapiens, UniProt P09769); assay: Inhibition of human recombinant FGR (456 to 770) at 5 nM by radiometric scintillation counting analysis relative to control
[4] = target: T2, Proto-oncogene tyrosine-protein kinase Src (Homo sapiens, UniProt P12931); assay: Inhibition of human recombinant Src (1-530) at 5 nM by radiometric scintillation counting analysis relative to control
[5] = target: Tyrosine-protein kinase Blk (Homo sapiens, UniProt P51451); assay: Inhibition of human full length recombinant BLK at 50 nM by radiometric scintillation counting analysis relative to control
[6] = target: Mast/stem cell growth factor receptor Kit (Homo sapiens) (UniProt P10721); assay: Inhibition of human recombinant c-Kit at 50 nM by radiometric scintillation counting analysis relative to control
[7] = target: Macrophage colony-stimulating factor 1 receptor (Homo sapiens, UniProt P07333); assay: Inhibition of human recombinant CSF1R using ATP/Ulight-TK peptide at 50 nM incubated for 15 mins relative to control
[8] = target: Tyrosine-protein kinase Lck (Homo sapiens, UniProt P06239); assay: Inhibition of human full length recombinant LCK at 50 nM by radiometric scintillation counting analysis relative to control
[9] = target: Tyrosine-protein kinase Lyn (Homo sapiens, UniProt P07948); assay: Inhibition of human full length recombinant LYN at 50 nM by radiometric scintillation counting analysis relative to control
[10] = target: Platelet-derived growth factor receptor alpha (Homo sapiens) (UniProt P16234); assay: Inhibition of human recombinant PDGFRalpha (550 to end) at 50 nM by radiometric scintillation counting analysis relative to control
[11] = target: Platelet-derived growth factor receptor beta (Homo sapiens) (UniProt P09619); assay: Inhibition of human recombinant PDGFRbeta (557 to end) at 50 nM by radiometric scintillation counting analysis relative to control
[12] = target: T2, Proto-oncogene tyrosine-protein kinase Src; assay: Inhibition of human recombinant Src (1-530) at 50 nM by radiometric scintillation counting analysis relative to control
[13] = target: T3, Tyrosine-protein kinase TXK (Homo sapiens) (UniProt P42681); assay: Inhibition of human recombinant […] (256 to end) at 50 nM by radiometric scintillation counting analysis relative to control
T3 sequence (whole entry): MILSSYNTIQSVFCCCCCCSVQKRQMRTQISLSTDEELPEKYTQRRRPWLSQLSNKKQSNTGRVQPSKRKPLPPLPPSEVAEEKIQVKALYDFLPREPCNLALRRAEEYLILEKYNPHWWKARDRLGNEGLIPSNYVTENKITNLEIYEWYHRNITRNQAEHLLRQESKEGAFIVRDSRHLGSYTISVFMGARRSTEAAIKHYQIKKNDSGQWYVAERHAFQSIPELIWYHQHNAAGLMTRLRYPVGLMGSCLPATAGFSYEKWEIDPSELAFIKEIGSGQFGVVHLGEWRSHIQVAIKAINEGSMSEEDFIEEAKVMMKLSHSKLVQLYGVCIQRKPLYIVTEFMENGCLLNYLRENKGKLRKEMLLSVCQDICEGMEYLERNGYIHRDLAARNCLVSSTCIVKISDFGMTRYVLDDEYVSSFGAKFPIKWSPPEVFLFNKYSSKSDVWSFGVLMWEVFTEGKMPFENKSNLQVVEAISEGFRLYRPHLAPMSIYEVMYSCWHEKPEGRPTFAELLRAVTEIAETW

[14] = target: T4, Tyrosine-protein kinase ZAP-70 (Homo sapiens) (UniProt P43403); assay: Inhibition of human full length recombinant ZAP70 at 50 nM by radiometric scintillation counting analysis relative to control
T4 sequence (whole entry): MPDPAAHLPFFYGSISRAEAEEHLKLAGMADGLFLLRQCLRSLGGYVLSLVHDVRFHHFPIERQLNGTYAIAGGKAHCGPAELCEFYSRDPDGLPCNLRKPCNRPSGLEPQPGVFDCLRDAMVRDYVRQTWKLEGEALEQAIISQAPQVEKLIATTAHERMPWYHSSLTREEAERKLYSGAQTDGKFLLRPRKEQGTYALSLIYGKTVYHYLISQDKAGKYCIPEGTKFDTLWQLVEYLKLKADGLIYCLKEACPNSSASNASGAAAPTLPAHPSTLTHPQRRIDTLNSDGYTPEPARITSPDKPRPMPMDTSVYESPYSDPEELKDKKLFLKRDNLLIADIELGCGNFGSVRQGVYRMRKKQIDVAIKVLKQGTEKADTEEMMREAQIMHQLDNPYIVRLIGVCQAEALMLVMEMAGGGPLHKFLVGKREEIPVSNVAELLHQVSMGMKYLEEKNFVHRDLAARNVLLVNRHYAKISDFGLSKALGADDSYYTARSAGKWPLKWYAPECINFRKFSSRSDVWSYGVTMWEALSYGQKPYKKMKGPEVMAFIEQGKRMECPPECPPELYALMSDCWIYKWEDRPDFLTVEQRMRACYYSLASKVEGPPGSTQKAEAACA

[15] = target: Tyrosine-protein kinase BTK (Homo sapiens) (UniProt Q06187); assay: Inhibition of human full length recombinant BTK at 500 nM by radiometric scintillation counting analysis relative to control
[16] = target: Tyrosine-protein kinase Fyn (Homo sapiens, UniProt P06241); assay: Inhibition of human recombinant Fyn (218 to end) at 500 nM incubated for 15 mins relative to control

Chain of Macrophage colony-stimulating factor 1 receptor (P07333 whole entry): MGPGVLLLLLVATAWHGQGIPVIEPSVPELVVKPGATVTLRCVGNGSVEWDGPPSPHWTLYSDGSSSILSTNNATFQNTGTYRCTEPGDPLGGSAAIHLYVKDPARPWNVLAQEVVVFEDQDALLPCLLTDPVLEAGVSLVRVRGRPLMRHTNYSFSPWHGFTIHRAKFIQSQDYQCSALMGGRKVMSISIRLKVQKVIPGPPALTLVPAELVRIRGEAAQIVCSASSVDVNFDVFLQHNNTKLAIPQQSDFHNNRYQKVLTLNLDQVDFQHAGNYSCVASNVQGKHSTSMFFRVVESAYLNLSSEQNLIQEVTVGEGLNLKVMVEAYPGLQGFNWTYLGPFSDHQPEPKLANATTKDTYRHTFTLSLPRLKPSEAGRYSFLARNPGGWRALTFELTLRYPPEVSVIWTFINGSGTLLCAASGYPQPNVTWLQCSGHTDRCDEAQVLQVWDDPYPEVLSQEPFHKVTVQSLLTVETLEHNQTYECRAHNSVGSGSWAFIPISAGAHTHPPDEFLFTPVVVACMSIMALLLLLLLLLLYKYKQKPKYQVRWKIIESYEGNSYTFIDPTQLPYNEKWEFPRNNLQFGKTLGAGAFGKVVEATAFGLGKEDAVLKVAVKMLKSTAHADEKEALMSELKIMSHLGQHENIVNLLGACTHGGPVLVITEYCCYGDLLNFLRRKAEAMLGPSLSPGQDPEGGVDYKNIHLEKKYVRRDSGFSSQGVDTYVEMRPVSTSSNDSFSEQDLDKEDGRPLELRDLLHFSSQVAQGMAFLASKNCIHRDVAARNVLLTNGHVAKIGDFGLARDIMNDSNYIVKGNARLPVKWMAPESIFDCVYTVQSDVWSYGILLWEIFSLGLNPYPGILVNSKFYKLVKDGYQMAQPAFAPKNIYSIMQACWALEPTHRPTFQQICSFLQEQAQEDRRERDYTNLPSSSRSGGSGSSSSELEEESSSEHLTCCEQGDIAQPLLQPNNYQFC
Chain of Tyrosine-protein kinase Fgr (P09769 2-529 limits assumed): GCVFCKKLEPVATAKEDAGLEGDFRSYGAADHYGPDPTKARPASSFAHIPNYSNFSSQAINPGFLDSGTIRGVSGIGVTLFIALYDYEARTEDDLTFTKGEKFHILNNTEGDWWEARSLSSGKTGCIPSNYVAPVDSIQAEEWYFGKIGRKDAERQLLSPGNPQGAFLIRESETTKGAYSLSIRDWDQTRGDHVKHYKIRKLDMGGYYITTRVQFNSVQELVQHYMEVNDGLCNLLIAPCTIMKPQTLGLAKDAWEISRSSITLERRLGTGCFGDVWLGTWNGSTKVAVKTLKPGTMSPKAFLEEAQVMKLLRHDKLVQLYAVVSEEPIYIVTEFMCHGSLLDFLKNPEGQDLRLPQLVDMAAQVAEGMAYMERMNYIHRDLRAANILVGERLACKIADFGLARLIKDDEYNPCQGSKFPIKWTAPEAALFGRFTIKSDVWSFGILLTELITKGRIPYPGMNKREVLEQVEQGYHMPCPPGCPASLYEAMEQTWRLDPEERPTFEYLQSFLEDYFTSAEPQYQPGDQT
Chain of Tyrosine-protein kinase BTK (Homo sapiens) (Q06187 whole entry): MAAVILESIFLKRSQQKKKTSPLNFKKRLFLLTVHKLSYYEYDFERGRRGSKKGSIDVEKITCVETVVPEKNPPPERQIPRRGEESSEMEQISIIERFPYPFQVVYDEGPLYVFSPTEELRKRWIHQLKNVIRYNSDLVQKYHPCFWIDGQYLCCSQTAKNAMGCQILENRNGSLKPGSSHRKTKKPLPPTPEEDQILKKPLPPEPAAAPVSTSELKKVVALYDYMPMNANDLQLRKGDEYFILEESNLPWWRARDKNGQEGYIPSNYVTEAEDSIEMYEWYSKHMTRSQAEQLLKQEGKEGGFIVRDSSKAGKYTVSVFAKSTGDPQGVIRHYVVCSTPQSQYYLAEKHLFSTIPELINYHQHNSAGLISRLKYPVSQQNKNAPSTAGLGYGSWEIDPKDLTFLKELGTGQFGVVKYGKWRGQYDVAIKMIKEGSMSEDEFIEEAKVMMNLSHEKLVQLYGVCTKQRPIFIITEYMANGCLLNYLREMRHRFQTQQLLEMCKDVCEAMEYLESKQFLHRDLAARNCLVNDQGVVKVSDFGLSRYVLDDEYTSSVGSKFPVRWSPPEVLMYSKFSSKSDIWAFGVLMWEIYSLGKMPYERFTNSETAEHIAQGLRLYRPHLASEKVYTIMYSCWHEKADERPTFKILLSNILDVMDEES
Chain of Tyrosine-protein kinase CSK (P41240 2-450 limits assumed): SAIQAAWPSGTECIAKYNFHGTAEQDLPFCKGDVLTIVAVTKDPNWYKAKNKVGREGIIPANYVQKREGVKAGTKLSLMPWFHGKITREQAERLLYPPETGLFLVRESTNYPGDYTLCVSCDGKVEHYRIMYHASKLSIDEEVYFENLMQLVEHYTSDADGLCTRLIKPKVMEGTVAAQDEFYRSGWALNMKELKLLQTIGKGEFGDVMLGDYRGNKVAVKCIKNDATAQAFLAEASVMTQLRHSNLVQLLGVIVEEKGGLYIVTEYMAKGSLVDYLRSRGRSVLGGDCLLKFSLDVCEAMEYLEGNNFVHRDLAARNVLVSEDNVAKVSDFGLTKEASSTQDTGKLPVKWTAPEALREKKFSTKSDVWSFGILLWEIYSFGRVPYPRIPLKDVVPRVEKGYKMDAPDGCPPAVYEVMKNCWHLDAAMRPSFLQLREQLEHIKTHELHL
Chain of Tyrosine-protein kinase Blk (P51451 2-505 limits assumed): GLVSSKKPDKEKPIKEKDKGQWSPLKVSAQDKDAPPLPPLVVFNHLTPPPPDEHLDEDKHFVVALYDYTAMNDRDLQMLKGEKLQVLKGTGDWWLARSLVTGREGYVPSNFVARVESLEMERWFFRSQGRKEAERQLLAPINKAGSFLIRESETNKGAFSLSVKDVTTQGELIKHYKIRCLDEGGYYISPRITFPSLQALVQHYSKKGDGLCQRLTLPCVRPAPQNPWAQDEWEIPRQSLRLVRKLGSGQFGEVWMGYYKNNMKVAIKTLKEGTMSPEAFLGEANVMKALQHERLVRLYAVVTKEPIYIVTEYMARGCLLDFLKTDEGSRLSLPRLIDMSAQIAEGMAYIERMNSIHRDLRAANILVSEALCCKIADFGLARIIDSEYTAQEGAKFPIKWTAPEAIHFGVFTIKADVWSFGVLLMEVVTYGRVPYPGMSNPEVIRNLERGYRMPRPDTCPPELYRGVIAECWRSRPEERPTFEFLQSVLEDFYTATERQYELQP
Chain of Platelet-derived growth factor receptor alpha (Homo sapiens) (P16234 whole entry): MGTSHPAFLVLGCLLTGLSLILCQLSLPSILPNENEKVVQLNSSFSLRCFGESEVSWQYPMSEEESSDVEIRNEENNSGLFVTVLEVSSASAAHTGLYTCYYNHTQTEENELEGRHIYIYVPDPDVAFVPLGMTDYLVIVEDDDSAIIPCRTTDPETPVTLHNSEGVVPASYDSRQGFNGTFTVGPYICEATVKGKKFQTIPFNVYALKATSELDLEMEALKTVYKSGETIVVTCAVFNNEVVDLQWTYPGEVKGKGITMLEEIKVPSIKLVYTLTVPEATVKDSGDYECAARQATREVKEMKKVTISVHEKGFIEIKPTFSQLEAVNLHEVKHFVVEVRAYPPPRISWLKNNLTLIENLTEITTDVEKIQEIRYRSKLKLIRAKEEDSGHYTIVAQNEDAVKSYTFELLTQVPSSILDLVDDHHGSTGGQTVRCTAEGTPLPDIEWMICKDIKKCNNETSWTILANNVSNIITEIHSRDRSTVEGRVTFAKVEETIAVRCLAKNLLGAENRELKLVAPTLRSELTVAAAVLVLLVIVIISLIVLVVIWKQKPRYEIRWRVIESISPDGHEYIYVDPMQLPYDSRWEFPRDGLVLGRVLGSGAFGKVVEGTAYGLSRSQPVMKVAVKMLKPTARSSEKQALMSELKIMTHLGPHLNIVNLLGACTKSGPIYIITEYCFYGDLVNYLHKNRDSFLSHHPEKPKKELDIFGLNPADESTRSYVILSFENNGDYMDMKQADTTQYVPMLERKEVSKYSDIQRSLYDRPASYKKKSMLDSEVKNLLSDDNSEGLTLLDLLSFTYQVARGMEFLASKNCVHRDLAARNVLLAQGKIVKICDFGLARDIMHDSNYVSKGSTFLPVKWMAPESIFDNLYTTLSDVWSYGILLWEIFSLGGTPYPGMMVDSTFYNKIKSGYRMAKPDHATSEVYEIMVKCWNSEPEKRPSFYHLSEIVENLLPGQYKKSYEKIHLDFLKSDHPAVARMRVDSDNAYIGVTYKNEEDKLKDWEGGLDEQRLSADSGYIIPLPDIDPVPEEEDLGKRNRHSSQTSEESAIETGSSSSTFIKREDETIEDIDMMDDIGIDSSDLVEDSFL
T2 sequence (P12931 2-536 limits assumed): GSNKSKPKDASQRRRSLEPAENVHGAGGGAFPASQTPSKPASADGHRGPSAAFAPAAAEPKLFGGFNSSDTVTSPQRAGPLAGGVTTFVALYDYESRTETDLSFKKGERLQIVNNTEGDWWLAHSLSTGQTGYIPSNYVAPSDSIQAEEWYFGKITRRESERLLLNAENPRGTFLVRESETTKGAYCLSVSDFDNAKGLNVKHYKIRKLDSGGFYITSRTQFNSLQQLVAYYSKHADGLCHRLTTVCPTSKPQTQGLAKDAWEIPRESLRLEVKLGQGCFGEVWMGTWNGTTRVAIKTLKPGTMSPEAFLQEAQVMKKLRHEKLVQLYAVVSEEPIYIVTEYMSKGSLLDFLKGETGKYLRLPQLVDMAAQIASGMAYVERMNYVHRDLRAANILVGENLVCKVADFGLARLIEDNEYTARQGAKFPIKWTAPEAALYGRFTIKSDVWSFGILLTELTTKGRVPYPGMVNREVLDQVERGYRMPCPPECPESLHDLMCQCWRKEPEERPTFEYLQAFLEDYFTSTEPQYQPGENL

inhibition [1] [%]	inhibition [2] [%]	inhibition [3] [%]	inhibition [4] [%]	inhibition [5] [%]	inhibition [6] [%]	inhibition [7] [%]	inhibition [8] [%]	inhibition [9] [%]	inhibition [10] [%]	inhibition [11] [%]	inhibition [12] [%]	inhibition [13] [%]	inhibition [14] [%]	inhibition [15] [%]	inhibition [16] [%]	Structure (SMILES)
21	22	4	4	13	21	94	59	93	21	54	49	5	2	11	64	Cc1ccc(C(=O)Nc2ccc(Cl)cc2Cl)cc1C#Cc1cc(-c2cnn(C)c2)cnc1N
-6	2	9	71	69	15	69	98	99	32	13	95	18	6	-2	96	Cc1ccc(C(=O)Nc2ccc(OC(F)(F)F)cc2)cc1C#Cc1cc(-c2cnn(C)c2)cnc1N

Structure (SMILES)	inhibition [1] [%]	inhibition [2] [%]	inhibition [3] [%]	inhibition [4] [%]	inhibition [5] [%]	inhibition [6] [%]	inhibition [7] [%]	inhibition [8] [%]	inhibition [9] [%]	inhibition [10] [%]	inhibition [11] [%]	inhibition [12] [%]	inhibition [13] [%]	inhibition [14] [%]	inhibition [15] [%]	inhibition [16] [%]
Cc1ccc(C(=O)Nc2cc(C(F)(F)F)cc(C(F)(F)F)c2)cc1C#Cc1cc(-c2cnn(C)c2)cnc1N	16	22	27	-10	56	-10	83	60	105	1	6	98	60	12	49	97
